Measurements reported in patent US8192962B2, “Processes for detecting toxic substances” (Daikin Industries, Ltd., priority 2001, dated 2012).

System: Genes belonging to other category
Test: DNA chip mRNA expression in yeast, genes belonging to other category (Table 9)
Format: cell-based, Saccharomyces cerevisiae S288C
Method in brief: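 Untreated cultures served as reference for log-phase S288C yeast given a growth-inhibiting, non-lethal toxicant dose for 2 h at 25° C. in YPD. Gene expression was measured on a whole-genome DNA chip from Cy3/Cy5-labeled cDNA.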

## Oc1cc(Cl)c(Cl)cc1Cl [(6), 2,4,5-trichlorophenol]
Yeast gene YJL210W
  The level of expressed mRNA in the presence of chemical substance/The level of expressed mRNA in the absence of chemical substance: 0.6
Yeast gene YJR004C
  The level of expressed mRNA in the presence of chemical substance/The level of expressed mRNA in the absence of chemical substance: 1.2
Yeast gene YJR050W
  The level of expressed mRNA in the presence of chemical substance/The level of expressed mRNA in the absence of chemical substance: 1.4
Yeast gene YJR086W
  The level of expressed mRNA in the presence of chemical substance/The level of expressed mRNA in the absence of chemical substance: 1.9
Yeast gene YJR091C
  The level of expressed mRNA in the presence of chemical substance/The level of expressed mRNA in the absence of chemical substance: 0.8
Yeast gene YJR110W
  The level of expressed mRNA in the presence of chemical substance/The level of expressed mRNA in the absence of chemical substance: 0.9
Yeast gene YJR117W
  The level of expressed mRNA in the presence of chemical substance/The level of expressed mRNA in the absence of chemical substance: 1.3
Yeast gene YJR119C
  The level of expressed mRNA in the presence of chemical substance/The level of expressed mRNA in the absence of chemical substance: 1.4
Yeast gene YJR145C
  The level of expressed mRNA in the presence of chemical substance/The level of expressed mRNA in the absence of chemical substance: 0.4
Yeast gene YKL008C
  The level of expressed mRNA in the presence of chemical substance/The level of expressed mRNA in the absence of chemical substance: 3.8
Yeast gene YKL013C
  The level of expressed mRNA in the presence of chemical substance/The level of expressed mRNA in the absence of chemical substance: 1.9
Yeast gene YKL025C
  The level of expressed mRNA in the presence of chemical substance/The level of expressed mRNA in the absence of chemical substance: 0.9
Yeast gene YKL039W
  The level of expressed mRNA in the presence of chemical substance/The level of expressed mRNA in the absence of chemical substance: 4.9
Yeast gene YKL041W
  The level of expressed mRNA in the presence of chemical substance/The level of expressed mRNA in the absence of chemical substance: 2.2
Yeast gene YKL079W
  The level of expressed mRNA in the presence of chemical substance/The level of expressed mRNA in the absence of chemical substance: 0.8
Yeast gene YKL096W
  The level of expressed mRNA in the presence of chemical substance/The level of expressed mRNA in the absence of chemical substance: 0.6
Yeast gene YKL139W
  The level of expressed mRNA in the presence of chemical substance/The level of expressed mRNA in the absence of chemical substance: 3.5
Yeast gene YKL165C
  The level of expressed mRNA in the presence of chemical substance/The level of expressed mRNA in the absence of chemical substance: 0.6
Yeast gene YKL193C
  The level of expressed mRNA in the presence of chemical substance/The level of expressed mRNA in the absence of chemical substance: 0.9
Yeast gene YKL196C
  The level of expressed mRNA in the presence of chemical substance/The level of expressed mRNA in the absence of chemical substance: 0.9
Yeast gene YKR014C
  The level of expressed mRNA in the presence of chemical substance/The level of expressed mRNA in the absence of chemical substance: 2.1
Yeast gene YKR098C
  The level of expressed mRNA in the presence of chemical substance/The level of expressed mRNA in the absence of chemical substance: 1.8
Yeast gene YLR120C
  The level of expressed mRNA in the presence of chemical substance/The level of expressed mRNA in the absence of chemical substance: 1.9
Yeast gene YLR136C
  The level of expressed mRNA in the presence of chemical substance/The level of expressed mRNA in the absence of chemical substance: 1.7
Yeast gene YLR144C
  The level of expressed mRNA in the presence of chemical substance/The level of expressed mRNA in the absence of chemical substance: 0.9
Yeast gene YLR178C
  The level of expressed mRNA in the presence of chemical substance/The level of expressed mRNA in the absence of chemical substance: 4.2
Yeast gene YLR206W
  The level of expressed mRNA in the presence of chemical substance/The level of expressed mRNA in the absence of chemical substance: 0.5
Yeast gene YLR250W
  The level of expressed mRNA in the presence of chemical substance/The level of expressed mRNA in the absence of chemical substance: 1.1
Yeast gene YLR266C
  The level of expressed mRNA in the presence of chemical substance/The level of expressed mRNA in the absence of chemical substance: 1.0
Yeast gene YLR327C
  The level of expressed mRNA in the presence of chemical substance/The level of expressed mRNA in the absence of chemical substance: 5.1
Yeast gene YLR356W
  The level of expressed mRNA in the presence of chemical substance/The level of expressed mRNA in the absence of chemical substance: 3.4
Yeast gene YLR360W
  The level of expressed mRNA in the presence of chemical substance/The level of expressed mRNA in the absence of chemical substance: 1.4
Yeast gene YLR362W
  The level of expressed mRNA in the presence of chemical substance/The level of expressed mRNA in the absence of chemical substance: 0.8
Yeast gene YLR389C
  The level of expressed mRNA in the presence of chemical substance/The level of expressed mRNA in the absence of chemical substance: 0.2
Yeast gene YLR391W
  The level of expressed mRNA in the presence of chemical substance/The level of expressed mRNA in the absence of chemical substance: 1.5
Yeast gene YLR429W
  The level of expressed mRNA in the presence of chemical substance/The level of expressed mRNA in the absence of chemical substance: 0.8
Yeast gene YMR004W
  The level of expressed mRNA in the presence of chemical substance/The level of expressed mRNA in the absence of chemical substance: 0.5
Yeast gene YMR094W
  The level of expressed mRNA in the presence of chemical substance/The level of expressed mRNA in the absence of chemical substance: 0.5
Yeast gene YMR101C
  The level of expressed mRNA in the presence of chemical substance/The level of expressed mRNA in the absence of chemical substance: 0.4
Yeast gene YMR104C
  The level of expressed mRNA in the presence of chemical substance/The level of expressed mRNA in the absence of chemical substance: 1.9
Yeast gene YMR219W
  The level of expressed mRNA in the presence of chemical substance/The level of expressed mRNA in the absence of chemical substance: 0.8
Yeast gene YMR226C
  The level of expressed mRNA in the presence of chemical substance/The level of expressed mRNA in the absence of chemical substance: 2.6
Yeast gene YMR275C
  The level of expressed mRNA in the presence of chemical substance/The level of expressed mRNA in the absence of chemical substance: 1.4
Yeast gene YMR276W
  The level of expressed mRNA in the presence of chemical substance/The level of expressed mRNA in the absence of chemical substance: 0.8
Yeast gene YMR297W
  The level of expressed mRNA in the presence of chemical substance/The level of expressed mRNA in the absence of chemical substance: 1.8
Yeast gene YMR314W
  The level of expressed mRNA in the presence of chemical substance/The level of expressed mRNA in the absence of chemical substance: 1.3
Yeast gene YNL006W
  The level of expressed mRNA in the presence of chemical substance/The level of expressed mRNA in the absence of chemical substance: 1.0
Yeast gene YNL007C
  The level of expressed mRNA in the presence of chemical substance/The level of expressed mRNA in the absence of chemical substance: 0.6
Yeast gene YNL069C
  The level of expressed mRNA in the presence of chemical substance/The level of expressed mRNA in the absence of chemical substance: 0.4
Yeast gene YNL093W
  The level of expressed mRNA in the presence of chemical substance/The level of expressed mRNA in the absence of chemical substance: 1.6
Yeast gene YNL333W
  The level of expressed mRNA in the presence of chemical substance/The level of expressed mRNA in the absence of chemical substance: 1.5
Yeast gene YNR010W
  The level of expressed mRNA in the presence of chemical substance/The level of expressed mRNA in the absence of chemical substance: 1.3
Yeast gene YNR069C
  The level of expressed mRNA in the presence of chemical substance/The level of expressed mRNA in the absence of chemical substance: 1.7
Yeast gene YOL013C
  The level of expressed mRNA in the presence of chemical substance/The level of expressed mRNA in the absence of chemical substance: 1.1
Yeast gene YOL039W
  The level of expressed mRNA in the presence of chemical substance/The level of expressed mRNA in the absence of chemical substance: 0.4
Yeast gene YOL120C
  The level of expressed mRNA in the presence of chemical substance/The level of expressed mRNA in the absence of chemical substance: 0.3
Yeast gene YOL164W
  The level of expressed mRNA in the presence of chemical substance/The level of expressed mRNA in the absence of chemical substance: 1.2
Yeast gene YOR023C
  The level of expressed mRNA in the presence of chemical substance/The level of expressed mRNA in the absence of chemical substance: 1.8
Yeast gene YOR036W
  The level of expressed mRNA in the presence of chemical substance/The level of expressed mRNA in the absence of chemical substance: 1.7
Yeast gene YOR117W
  The level of expressed mRNA in the presence of chemical substance/The level of expressed mRNA in the absence of chemical substance: 1.1
Yeast gene YOR124C
  The level of expressed mRNA in the presence of chemical substance/The level of expressed mRNA in the absence of chemical substance: 0.9
Yeast gene YOR132W
  The level of expressed mRNA in the presence of chemical substance/The level of expressed mRNA in the absence of chemical substance: 1.6
Yeast gene YOR133W
  The level of expressed mRNA in the presence of chemical substance/The level of expressed mRNA in the absence of chemical substance: 0.9
Yeast gene YOR134W
  The level of expressed mRNA in the presence of chemical substance/The level of expressed mRNA in the absence of chemical substance: 1.4
Yeast gene YOR157C
  The level of expressed mRNA in the presence of chemical substance/The level of expressed mRNA in the absence of chemical substance: 1.2
Yeast gene YOR181W
  The level of expressed mRNA in the presence of chemical substance/The level of expressed mRNA in the absence of chemical substance: 0.9
Yeast gene YOR185C
  The level of expressed mRNA in the presence of chemical substance/The level of expressed mRNA in the absence of chemical substance: 3.0
Yeast gene YOR198C
  The level of expressed mRNA in the presence of chemical substance/The level of expressed mRNA in the absence of chemical substance: 0.9
Yeast gene YOR259C
  The level of expressed mRNA in the presence of chemical substance/The level of expressed mRNA in the absence of chemical substance: 0.8
Yeast gene YOR261C
  The level of expressed mRNA in the presence of chemical substance/The level of expressed mRNA in the absence of chemical substance: 1.4
Yeast gene YOR288C
  The level of expressed mRNA in the presence of chemical substance/The level of expressed mRNA in the absence of chemical substance: 1.0
Yeast gene YOR327C
  The level of expressed mRNA in the presence of chemical substance/The level of expressed mRNA in the absence of chemical substance: 1.4
Yeast gene YOR355W
  The level of expressed mRNA in the presence of chemical substance/The level of expressed mRNA in the absence of chemical substance: 1.6
Yeast gene YOR362C
  The level of expressed mRNA in the presence of chemical substance/The level of expressed mRNA in the absence of chemical substance: 1.4
Yeast gene YOR383C
  The level of expressed mRNA in the presence of chemical substance/The level of expressed mRNA in the absence of chemical substance: 6.8
Yeast gene YPL089C
  The level of expressed mRNA in the presence of chemical substance/The level of expressed mRNA in the absence of chemical substance: 0.8
Yeast gene YPL109C
  The level of expressed mRNA in the presence of chemical substance/The level of expressed mRNA in the absence of chemical substance: 1.2
Yeast gene YPL149W
  The level of expressed mRNA in the presence of chemical substance/The level of expressed mRNA in the absence of chemical substance: 0.9
Yeast gene YPL154C
  The level of expressed mRNA in the presence of chemical substance/The level of expressed mRNA in the absence of chemical substance: 3.5
Yeast gene YPR028W
  The level of expressed mRNA in the presence of chemical substance/The level of expressed mRNA in the absence of chemical substance: 1.4
Yeast gene YPR080W
  The level of expressed mRNA in the presence of chemical substance/The level of expressed mRNA in the absence of chemical substance: 1.4
Yeast gene YPR103W
  The level of expressed mRNA in the presence of chemical substance/The level of expressed mRNA in the absence of chemical substance: 1.2
Yeast gene YPR108W
  The level of expressed mRNA in the presence of chemical substance/The level of expressed mRNA in the absence of chemical substance: 1.5
Yeast gene YPR168W
  The level of expressed mRNA in the presence of chemical substance/The level of expressed mRNA in the absence of chemical substance: 0.4
